The nature of data set [1]: Solubility of the compound at pseudo-thermodynamic equilibrium after 24 hrs by UPLC/UV/TOF-MS analysis at pH 7.4. In kind it is physicochemical. The following applies: buffer.
Data set [2] in a line: Metabolic stability in rat plasma assessed as compound remaining at 250 uM after 3 hrs by LC-ESI-MS-MS analysis. It counts as ADME, cell-free. The following applies: read-out: Stability.
A short description of data set [3]: Intrinsic clearance in rat liver microsomes assessed per mg of protein at 1 uM by UPLC/TOF-MS analysis. It counts as ADME, Microsome. The settings on record: read-out: CLH. For orientation: Liver microsomes are vesicles of endoplasmic reticulum, rich in cytochrome P450 enzymes.
Data set [4] is described as follows: Cmax in Long Evans rat at 20 mg/kg, po. In kind it is ADME, organism-based. Details: dose 20 mg/kg, route oral. The settings on record: in vivo.
The nature of data set [5]: Tmax in Long Evans rat at 20 mg/kg, po. Also on record: dose 20 mg/kg, route oral. It counts as ADME, organism-based. The following applies: in vivo.
A short description of data set [6]: AUC (0 to infinity) in Long Evans rat at 20 mg/kg, po. In kind it is ADME, organism-based. Also on record: time infinity, dose 20 mg/kg, route oral. The settings on record: plasma.
Data set [7] can be described thus: Oral bioavailability in Long Evans rat at 20 mg/kg. The settings on record: in vivo. In kind it is ADME, organism-based.
Data set [8] is described as follows: Ratio of drug level in brain to plasma in Long Evans rat at 10 mg/kg, po. In kind it is ADME, organism-based. Also on record: dose 10 mg/kg, route oral. The settings on record: read-out: BPR.
The nature of data set [9]: Cmax in Long Evans rat brain at 10 mg/kg, po. It counts as ADME, organism-based. Also on record: dose 10 mg/kg, route oral.

Each structure is given as a SMILES string. ≈ marks a conversion by molar mass, not a printed value. Some results are limits rather than exact numbers.

As for `COc1ccc(-c2cc(NC(=O)CCCCN3CCNC(=O)CC3)[nH]n2)cc1`, the solubility (thermodynamic) at 24 h in data set [1] is 117 µM (≈ 45.1 µg/mL). Regarding `COc1ccc(-c2cc(NC(=O)CCCCN3CCC(C(N)=O)CC3)[nH]n2)cc1`, in data set [1], the solubility (thermodynamic) at 24 h is 184 µM (≈ 73.5 µg/mL). This solubility thermodynamic at 24 h is about 1.6-fold higher than that of the molecule before.

In [1], `COc1ccc(-c2n[nH]c(NC(=O)CCCCN3CCCN(C(C)=O)CC3)c2C)cc1` registered a solubility (thermodynamic) at 24 h of 151 µM (≈ 64.6 µg/mL). The solubility thermodynamic at 24 h values of the last two molecules are within 1.5-fold of each other.

In turn, `COc1ccc(-c2n[nH]c(NC(=O)CCCCN3CCCCC3)c2C)cc1` returned a thermodynamic solubility at 24 h in data set [1] of 188 µM (≈ 69.7 µg/mL). The solubility thermodynamic at 24 h values of the last two molecules are within 1.5-fold of each other.

Turning to `COc1ccc(-c2cc(NC(=O)CCCCN3CCNC(=O)C3)[nH]n2)cc1`, the thermodynamic solubility at 24 h in data set [1] amounted to 92 µM (≈ 34.2 µg/mL). Still for that read-out and setting: for `O=C(CCCCN1CCCCC1)Nc1cc(-c2ccc(Cl)cc2)n[nH]1` the value was 182 µM (≈ 65.7 µg/mL); for `O=C(CCCCN1CCCCC1)Nc1cc(-c2ccc(Br)cc2)n[nH]1`, 144 µM (≈ 58.4 µg/mL); for `COc1cccc(-c2cc(NC(=O)CCCCN3CCCCC3)[nH]n2)c1`, 213 µM (≈ 75.9 µg/mL). In data set [1], `COc1ccc(-c2c[nH]c(NC(=O)CCCCN3CCCN(C(C)=O)CC3)n2)cc1` registered a solubility (thermodynamic) at 24 h of 193 µM (≈ 79.8 µg/mL).

For the molecule `COc1ccc(-c2cc(NC(=O)CCCCN3CCC(C)CC3)n[nH]2)cc1`, the thermodynamic solubility at 24 h in [1] was found to be 198 µM (≈ 73.4 µg/mL). The same measure, in the same setting: for `O=C(CCCCN1CCCCC1)Nc1cc(-c2ccco2)n[nH]1` the value was 250 µM (≈ 79.1 µg/mL).

Consider `COc1ccc(-c2cc(NC(=O)C(C)CCCN3CCCN(C(C)=O)CC3)[nH]n2)cc1` (stereo unspecified), for which the thermodynamic solubility at 24 h in data set [1] worked out at 128 µM (≈ 54.7 µg/mL). In data set [2], the remaining at 3 h, 250 µM was greater than 99%. In turn, `COc1ccccc1-c1cc(NC(=O)CCCCN2CCCCC2)[nH]n1` returned a solubility (thermodynamic) at 24 h in data set [1] of 178 µM (≈ 63.5 µg/mL).

As for `O=C(CCCCN1CCCCC1)Nc1cc(-c2ccc(C(F)(F)F)cc2)n[nH]1`, the thermodynamic solubility at 24 h in [1] amounted to 157 µM (≈ 61.9 µg/mL). In data set [1], `COc1ccc(-c2cc(NC(=O)CCCCN3CCCCC3)[nH]n2)cc1` came in with a thermodynamic solubility at 24 h of 219 µM (≈ 78.1 µg/mL). Still for that read-out and setting: the value for `COc1ccc(-c2cc(NC(=O)CCCCN3CCCOCC3)[nH]n2)cc1` was 176 µM (≈ 65.6 µg/mL); that for `COc1ccc(-c2cc(NC(=O)CCCCN3CCCNCC3)[nH]n2)cc1` was 153 µM (≈ 56.8 µg/mL).

On to `O=C(CCCCN1CCCCC1)Nc1cc(-c2ccncc2)n[nH]1`, for which the thermodynamic solubility at 24 h in data set [1] was determined as 226 µM (≈ 74 µg/mL). Still for that read-out and setting: for `COc1ccc(-c2cc(NC(=O)CCCCN3CCOCC3)[nH]n2)cc1` the value was 176 µM (≈ 63.1 µg/mL); for `O=C(CCCCN1CCCCC1)Nc1cc(-c2ccc(F)cc2)n[nH]1`, 237 µM (≈ 81.6 µg/mL); for `COc1ccc(-c2cc(NC(=O)CCCCN3CCCCCC3)n[nH]2)cc1`, 133 µM (≈ 49.3 µg/mL). For `COc1ccc(-c2cc(NC(=O)CCCCN3CCCN(C(C)=O)CC3)[nH]n2)cc1`, in data set [1], the solubility (thermodynamic) at 24 h came to 170 µM (≈ 70.3 µg/mL). Moreover, the remaining at 3 h, 250 µM in data set [2] was 55%. In addition, in data set [3], the microsomal CLint at 1 µM amounted to 13 µL/min/mg. Further, the Cmax was found to be 180 nM in [4] and 3.7 ng/g in data set [9]. For the same molecule, the time of peak concentration (Tmax) in [5] worked out at 49.8 min. In [6], the AUC(0-inf) was 1.37 µM·h. In [7], the bioavailability was determined as 12%. Also, the Kp in data set [8] worked out at 0.38.

Usually thermodynamic solubility stands for solubility found after equilibrating the solid with the medium. For orientation: Cmax means the peak of the concentration-time curve. What is called Tmax is the time at which the peak concentration occurs. By AUC(0-inf) is commonly meant the area under the concentration-time curve extrapolated to infinity. A high value points to high exposure. Usually bioavailability stands for the share of a dose that reaches the circulation, judged against a reference dose that is usually intravenous.
